According to patent publication US11781110B2, “Induction of corneal endothelial cells” (The Regents of the University of California, priority 2016, dated 2023):

What was measured:
[1] = tested on: EFSCs; assay: Directed differentiation of eye field stem cells into ocular neural crest stem cells; format: cell-based, human; conditions: 3 μM in NCSC induction medium; after a week of induction
Method: Directed differentiation of eye field stem cells into ocular neural crest stem cells. […] The in vitro derivation of neural crest stem cells from PSCs has been previously described (Chambers et al., 2013; Lee et al., 2007). It was reasoned that, if EFSCs could be primed toward ocular neural crest lineage, the cells could serve as a direct and renewable source to generate CECs in culture. To direct EFSCs toward neural crest fate, EFSCs were seeded at low density, and neural crest lineage specification was initiated in NCSC induction medium supplemented with the presence of 3 μM CHIR 99021. […] Immunostaining also detected the expression of nuclear translocation of beta-catenin (FIG. 4C), an indication of increased WNT canonical signaling during neural crest formation.

[2] = tested on: EFSC-derived NCSCs; assay: Differentiation of CECs from ocular neural crest stem cells; format: cell-based, human; conditions: added to the differentiation medium
Method: Differentiation of CECs from ocular neural crest stem cells. In order to test if CECs could be induced from the EFSC-derived NCSCs directly in vitro, NCSCs were seeded at low cell density on an FNC coated plate. […] They remained proliferative and formed a relatively homogenous monolayer of cells after a few passages (FIG. 5B). To further characterize the NCSC-derived CEC sheets, immunostaining for several typical CEC markers including tight junction protein 1 (TJP1/ZO-1), N-Cadherin, and Na+/K+ ATPase was performed (FIG. 5C).

[3] = tested on: rabbit corneal endothelium; assay: Rabbit corneal endothelium injury model; format: in vivo; conditions: compared
[4] = tested on: CEC; assay: CEC migration, proliferation and wound healing with ROCK inhibitor; format: cell-based; conditions: compared with Y-27632
[5] = tested on: corneal endothelial cells (CECs); conditions: cited from earlier work

With Cc1c[nH]c(-c2cnc(NCCNc3ccc(C#N)cn3)nc2-c2ccc(Cl)cc2Cl)n1 [CHIR 99021] the “expression of NCSC surface marker HNK-1” value [1] was “majority of EFSCs start to express a typical NCSC surface marker HNK-1”.

In the case of Cc1cncc2cccc(S(=O)(=O)N3CCCNC[C@@H]3C)c12 [H-1125], the “effect on differentiation of CECs” value [2] is reported as “improve the differentiation of CECs”, the wound healing effect [3] is reported as “better wound healing effect” and the “effect on CEC migration, proliferation and wound healing” value [4] is reported as “more significant stimulatory effect”.

In the case of C[C@@H](N)[C@H]1CC[C@H](C(=O)Nc2ccncc2)CC1 [Y-27632], the “apoptosis of CECs” value [5] is listed as “inhibition of apoptosis”, the “proliferation of corneal endothelial cells (CECs)” value [5] is listed as “increased proliferation” and the “corneal endothelial wound healing” value ([5]; in vitro and in vivo) is listed as “enhanced corneal endothelial wound healing”.
